This is an account of results in patent US5776902A, “Boronophenyl analogs of phospholyrosines” (Trustees of Tufts University, priority 1995, dated 1998).

Assay [1] has as its target T1, SH2 mediated interaction of middle T and fyn (Homo sapiens, UniProt P06241).
T1 construct: host or cells: middle T: Sf9 cells (baculovirus co-expression with src)
The assay is described as follows: Effect on Middle T/fyn interaction (GST-Fyn pull-down of 32P-labeled middle T, autoradiography). The following applies: GST-Fyn on glutathione-Sepharose beads, 32P-labeled polyoma Middle T, SDS gel autoradiography (FIG. 6); inhibitor 3.95×10^-4 M to 3.95×10^-5 M. The format is binding. As for the experimental part:
Approximately 10 μg of a GST-Fyn fusion protein bound to 10 μl of glutathione-Sepharose beads were incubated with 90 μl of buffer (TEB, pH 9.0) and 10 μl of DMSO or DMSO containing an isomer (#1 or #2) of compound 36 (lanes 2 and 3 equal 3.95×10^-4 M; lane 4 equals 1.32×10^-4 M; lane 5 equals 3.95×10^-5 M). Lane 1 contains no inhibitor. The lanes labeled "MT 315" (lanes 6 and 7) are reaction mixutures as above, but having 20 μg of peptide (middle T residues EEYMPMED) instead of the benzodiazepine 36. The label "pY" indicates the peptide was phosphorylated, while unphosphoryalated peptide is designated as "-". The reaction mixtures were incubated for 1 hour, then 100 μL ^32 P-labeled Middle T (polyoma), prepared from baculovirus co-expression of middle T and src in Sf9 cells, were added to each reaction and incubated for 1 hour more at 4° C. The sepharose was washed with twice with PBS, and once with distilled water, boiled in SDS dissociation buffer, and run on a 7.5% acrylamide SDS gel. Labeled MT was visualized on the gel by autoradiography, and the inhibition of MT/fyn interaction determined.

The target in another assay is T2, lck-SH2 (Homo sapiens, UniProt P06239).
T2 construct: made in house; host or cells: E. coli
T2 sequence (P06239 127-224 limits assumed): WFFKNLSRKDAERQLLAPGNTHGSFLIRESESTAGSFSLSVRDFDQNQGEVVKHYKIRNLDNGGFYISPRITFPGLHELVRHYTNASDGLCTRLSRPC
The assay is described as follows: IDEXX lck-SH2 binding assay (GST-SH2 beads, FITC-labeled peptide EPQYEEIPIYL). The following applies: inhibition of binding of FITC-labeled peptide to GST-lck SH2 beads (FIG. 7). As for the experimental part: In order to assess the inhibitory activity of the present peptidomimetics, the ability of the subject compounds to inhibit the interaction between a specific peptide and an SH2 domain was determined. Various SH2 domains were subcloned in frame with the glutathione-S-transferase affinity tag of the pGEX vector system (Pharmacia catalog no. PGEX-4T-3). The resulting pGEX-E2 construct encoded a glutathione-S-transferase (GST)/SH2 fusion protein (Smith et al. (1988) Gene 67:31-40). The pGEX construct was introduced into E. coli by transfromation, and the transformants grown in liquid media (LB) in the presence of IPTG. Purification of GST/E2 fusion protein was by standard protocols (Current Protocols in Molecular Biology, eds. Ausubel et al. (NY:John Wiley & Sons, 1991); Pharmacia instruction booklet (for catalog no. 27-4570)) using a glutathione-sepharose column (Pharmacia catalog no. 27-4570). Briefly, the cells were pelleted and resuspended in buffer A (50 mM TRIS (pH7.5), 2 mM EDTA, 250 mM NaCl, 5% glycerol (V/V), 1% Tween (V/V), 1% Triton X 100 (V/V)), to which 2 mM PMSF and 15 mM 2-mercaptoethanol were added. […]

T1 sequence (P06241 whole entry, species assumed): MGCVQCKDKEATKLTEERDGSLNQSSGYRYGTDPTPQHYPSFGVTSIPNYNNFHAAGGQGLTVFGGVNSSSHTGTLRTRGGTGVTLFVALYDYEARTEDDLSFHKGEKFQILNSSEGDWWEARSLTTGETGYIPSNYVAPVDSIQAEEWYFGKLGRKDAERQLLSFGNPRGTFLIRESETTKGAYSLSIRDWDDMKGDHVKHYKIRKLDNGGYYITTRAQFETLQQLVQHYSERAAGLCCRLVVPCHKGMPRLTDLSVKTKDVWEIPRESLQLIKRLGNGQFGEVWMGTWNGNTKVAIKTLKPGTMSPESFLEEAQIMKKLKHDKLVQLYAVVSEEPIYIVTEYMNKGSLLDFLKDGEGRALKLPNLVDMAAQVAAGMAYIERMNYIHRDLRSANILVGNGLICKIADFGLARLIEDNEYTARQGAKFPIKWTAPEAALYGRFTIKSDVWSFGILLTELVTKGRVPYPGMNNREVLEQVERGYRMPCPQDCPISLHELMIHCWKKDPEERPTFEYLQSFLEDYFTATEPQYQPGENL

With `CC[C@H](C)[C@H](NC(=O)CN1C(=O)C(NC(=O)[C@H](Cc2ccc(OP(=O)(O)O)cc2)NC(C)=O)N=C(c2ccccc2)c2ccccc21)C(=O)OC` (single isomer, unassigned; isomer #2) [isomer #2], the “inhibition of MT/fyn interaction” value in assay [1] was “more potent inhibitor”. One may read the IC50 as the concentration at which inhibition is half-maximal. Low values mean greater potency, high ones weaker potency. In turn, `CC[C@H](C)[C@H](NC(=O)CN1C(=O)C(NC(=O)[C@H](Cc2ccc(OP(=O)(O)O)cc2)NC(=O)OCC2c3ccccc3-c3ccccc32)N=C(c2ccccc2)c2ccccc21)C(=O)OC` (stereo partly drawn) [FMOC-derivative, 1,3-Dihydro-1-[(methoxy-L-isoleucyl)carbonylmethyl)-5-phenyl-3(R,S)-{[(N-fluorenylmethoxycarbonyl)phosphono-L-tyrosyl]amino}-2H-1,4-benzodiazepin-2-one] registered an IC50 at lck-SH2 of 48.2 µM. In the case of `CC[C@H](C)[C@H](NC(=O)CN1C(=O)C(NC(=O)[C@H](Cc2ccc(OP(=O)(O)O)cc2)NC(C)=O)N=C(c2ccccc2)c2ccccc21)C(=O)OC` (stereo partly shown) [compound 36], in assay [1], the “inhibition of MT/fyn interaction” value is “both isomers of 36 displayed inhibitory action”. On lck-SH2, this compound gave a 50% inhibitory concentration (IC50) of 271 µM.
